Measurements from PMC8370991, “Structural basis for the inhibition of HTLV-1 integration inferred from cryo-EM deltaretroviral intasome structures” (Nature Communications, 2021).
Read-outs that look alike come from different tables or passages of the source.

Legend:
[1] = biological target: T1, recombinant HTLV-1 IN (Human T-cell leukemia virus 1, UniProt P03362); experiment: In vitro integration strand transfer assay with HTLV-1 IN; assay type: biochemical; conditions: for HTLV-1 IN strand transfer activity (No drug = 100): INSTI at 634 nM
T1 construct: made in house
T1 sequence (P03362 1168-1462): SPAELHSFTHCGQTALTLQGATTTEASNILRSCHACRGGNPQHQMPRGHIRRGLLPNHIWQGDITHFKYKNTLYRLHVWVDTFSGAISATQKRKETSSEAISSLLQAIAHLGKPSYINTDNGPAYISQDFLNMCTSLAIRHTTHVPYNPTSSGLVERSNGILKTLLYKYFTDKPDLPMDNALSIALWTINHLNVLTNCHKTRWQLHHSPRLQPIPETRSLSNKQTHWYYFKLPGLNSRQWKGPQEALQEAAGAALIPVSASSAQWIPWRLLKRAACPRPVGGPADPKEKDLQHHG
Method in brief: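 Recombinant HTLV-1 IN (4 μg) with annealed 3′-processed LTR donor DNA (0.53 μM) preincubated 15 min RT with compound (screen at 634 nM) in PIPES pH 6.0, NaCl, MgCl2, ZnCl2, DTT; supercoiled plasmid target added, 1 h 37 °C. Concerted integration product quantified by agarose-gel densitometry; IC50 from dose–response fits, triplicate.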

[2] = test system: HTLV-1; experiment: Alu-qPCR of integrated provirus in HTLV-1 infected Jurkat cells; assay type: cell-based; conditions: normalized to GAPDH
Experimental: The HTLV-1 cell-to-cell infection was performed as previously described; Jurkat T cells were counted and diluted in complete RPMI to a final concentration of 0.25 × 10^6 cells/ml and pre-treated with INSTI drugs (final concentration ranging from 0.2 pM to 2 μM) or DMSO as a control for 24 h. MT-2 cells were resuspended in RPMI at a concentration of 2 × 10^6 cells/ml and subjected to a nonlethal γ-radiation dose of 400 Gy. Cells were resuspended at a concentration of 2 × 10^6 cells/ml in serum-free RPMI supplemented with the corresponding INSTI drug. Co-culture of 0.5 × 10^6 for each cell line was carried out for 16 h, after which cells were washed in PBS and resuspended in 1 ml of depletion buffer (PBS, 0.1% FBS and 2 mM EGTA). MT-2 cells were depleted from the culture by means of anti-CD25 magnetic beads (DynabeadsTM CD25, Thermo Fisher). Depletion efficiency was confirmed via flow cytometry as described previously. Jurkat cells were cultured for 2 weeks in complete RPMI supplemented with the drugs and genomic DNA was extracted (DNeasy kit, Qiagen) and stored at −20 °C for subsequent analysis. All the experiments were done in triplicate.
The PVL was measured as previously described[9],[53],[54]. Jurkat genomic DNA was quantified and diluted to a concentration of 5 ng/μL. Real-time qPCR analysis were conducted on 20 ng of gDNA to measure the level of HTLV-1 tax and gapdh genes (Supplementary Table 5). For the standard curve, the gDNA from an HTLV-1 naturally infected T-cell clone (clone 11.50, courtesy of professor Charles Bangham), which has one copy of tax and two of gapdh, was used. The integrated provirus copy number was calculated as follows: (tax copy numbers)/(2×gapdh copy number)[53], and normalised to the DMSO-treated control which was set to 100%. The PVL data were fitted to a dose–response curve in Prism 7 and the EC50 was calculated. Alu-PCR was performed as previously described in ref. [55]. In brief, the first PCR reaction was done with Phusion polymerase starting from 80 ng of gDNA using the ALU-specific primers (Alu-F/Gag-R). The nested PCR was run diluting the amplificated product 1:50. The reaction was done as a qPCR using Gag-specific primers (Gag-R/Gag-F) and the Luna SYBR dye reaction mix (New England Biolabs). The integrated provirus copy numbers were normalised to GAPDH and Jurkat cells treated with DMSO and infected with HTLV-1 were set to 100%. Experiments were done in triplicate. […]
Supplementary Figure 6 | Integrated provirus was quantified by Alu-qPCR.
Values were normalized to GAPDH. Uninfected represents uninfected Jurkat cells, acting as negative control. Condition without any drug present (DMSO) was set as 100%. Mean values and standard deviations are shown for n = three biologically independent experiments. P-values were calculated with respect to the DMSO control using the unpaired t-test with Welch’s correction in Prism 9. P-values are two-sided.

[3] = test system: HIV-1; conditions: cited from earlier work
[4] = Replicate 1, read-out: HTLV-1 IN strand transfer IC50
[5] = Replicate 2, read-out: HTLV-1 IN strand transfer IC50
[6] = Replicate 3, read-out: HTLV-1 IN strand transfer IC50
[7] = integrase strand-transfer drug titration, n = 3, read-out: HTLV-1 IC50 ± stdev
[8] = previously reported, read-out: EC50, infection by wild-type HIV-1

| SMILES | HTLV-1 IN strand transfer activity (No drug = 100) ([1]; Replicate 1) [%] | HTLV-1 IN strand transfer activity (No drug = 100) ([1]; Replicate 2) [%] | HTLV-1 IN strand transfer activity (No drug = 100) ([1]; Replicate 3) [%] | IC50 [1, 4] [nM] | IC50 [1, 5] [nM] | IC50 [1, 6] [nM] | inhibition of HTLV-1 IN in the screen compared with RAL ([1]; each compound at 634 nM) | IC50 [1, 7] [nM] | Integrated provirus by Alu-qPCR (DMSO = 100%) ([2]; Replicate 1) [%] | Integrated provirus by Alu-qPCR (DMSO = 100%) ([2]; Replicate 2) [%] | Integrated provirus by Alu-qPCR (DMSO = 100%) ([2]; Replicate 3) [%] | EC50 ([3]; HIV-1 infection model, supplementary ref 7, read-out: HIV-1 EC50 ± stdev) [nM] | EC50 ([3]; HIV-1 infection model, supplementary ref 1, read-out: HIV-1 EC50 ± stdev) [nM] | EC50 ([3]; previously reported, read-out: EC50, inhibitory potency for HIV-1) [nM] | EC50 [3, 8] [nM] |
| --- | --- | --- | --- | --- | --- | --- | --- | --- | --- | --- | --- | --- | --- | --- | --- |
| CC(C)n1c(C(=O)N(C)C)c2c(c(O)c1=O)C(=O)N(Cc1ccc(F)c(Cl)c1)CC2 [XZ236, 6-(3-chloro-4-fluorobenzyl)-4-hydroxy-2-isopropyl-N,N-dimethyl-3,5-dioxo-2,3,5,6,7,8-hexahydro-2,6-naphthyridine-1-carboxamide, reference compound] | 9.7581 | 22.4849 | 26.0036 | 130 | 504 | 301 | outperformed RAL | 322 ± 121 | 4.2364 | 4.296 | 2.243 | 17 ± 4 |  |  |  |
| Nc1c(C(=O)NCc2ccc(F)cc2F)c(=O)n(O)c2ncc(CCCO)cc12 [XZ423, 4-amino-N-(2,4-difluorobenzyl)-1-hydroxy-6-(3-hydroxypropyl)-2-oxo-1,2-dihydro-1,8-naphthyridine-3-carboxamide] | 5.722 | 15.1459 | 14.6599 | 144 | 185 | 155 |  | 155 ± 33.5 | 2.519 | 0.166 | 0.06882 |  | 3.1 ± 2 |  |  |
| Nc1c(C(=O)NCc2ccc(F)cc2F)c(=O)n(O)c2ncc(CCS(=O)(=O)c3ccccc3)cc12 [XZ446, 4-amino-N-(2,4-difluorobenzyl)-1-hydroxy-2-oxo-6-(2-(phenylsulfonyl)ethyl)-1,2-dihydro-1,8-naphthyridine-3-carboxamide] | 11.4924 | 20.4545 | 15.1675 | 143 | 85 | 126 |  | 115 ± 9.5 | 13.9354 | 1.128 | 3.891 |  |  | 2 ± 0.1 |  |
| Nc1c(C(=O)NCc2ccc(F)cc2F)c(=O)n(O)c2ncc(CCC(=O)NCCO)cc12 [XZ448, 4-amino-N-(2,4-difluorobenzyl)-1-hydroxy-6-(3-((2-hydroxyethyl)amino)-3-oxopropyl)-2-oxo-1,2-dihydro-1,8-naphthyridine-3-carboxamide] | 5.498 | 23.674 | 16.1231 | 99 | 227 | 108 |  | 132 ± 29.7 | 25.215 | 64.5778 | 27.0471 |  |  |  | 263 ± 52 |
| CN(C)C(=O)CCc1cnc2c(c1)c(N)c(C(=O)NCc1ccc(F)cc1F)c(=O)n2O [XZ450, 4-amino-N-(2,4-difluorobenzyl)-6-(3-(dimethylamino)-3-oxopropyl)-1-hydroxy-2-oxo-1,2-dihydro-1,8-naphthyridine-3-carboxamide] | 10.2814 | 19.561 | 9.5729 | 115 | 180 | 76 |  | 120 ± 36.1 | 0.2536 | 0.5264 | 0.2229 |  |  |  | 5 ± 1.3 |
